In patent US20260317324A1, “BIFUNCTIONAL COMPOUNDS FOR DEGRADING BRAF VIA UBIQUITIN PROTEOSOME PATHWAY” (Nurix Therapeutics, Inc., priority 2023, published 2026):

Target: T1, BRAF V600E (Homo sapiens, UniProt P15056, V600E)
T1 construct: endogenous C-terminal HiBiT fusion tag on BRAF V600E allele; endogenous in cells; host or cells: A375 clone 1F10 (CRISPR-Cas9 knock-in of the HiBiT tag; parental A375 from ATCC)
Assay: BRAF HiBiT degradation assay, C-terminal HiBiT-tagged BRAF V600E A375 cells (clone 1F10), Nano-Glo HiBiT Lytic assay
Type: cell-based
Conditions: A375 (BRAF V600E); for DC50: DC50 at 50%: fitted conc. at Y=50; for Dmax: A-375, percentage protein degraded at maximal compound effect relative to DMSO
How it was run: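 Steps: seed HiBiT-tagged A375 clone 1F10 cells; incubate 24 h, 37 °C, 5% CO2; add compound (11 half-log points from 1 μM, 0.2% DMSO); lyse with HiBiT detection reagent plus LgBiT for 10 min; read luminescence; fit % protein remaining against concentration.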

T1 sequence (P15056 whole entry V600E, the tested form may be a part): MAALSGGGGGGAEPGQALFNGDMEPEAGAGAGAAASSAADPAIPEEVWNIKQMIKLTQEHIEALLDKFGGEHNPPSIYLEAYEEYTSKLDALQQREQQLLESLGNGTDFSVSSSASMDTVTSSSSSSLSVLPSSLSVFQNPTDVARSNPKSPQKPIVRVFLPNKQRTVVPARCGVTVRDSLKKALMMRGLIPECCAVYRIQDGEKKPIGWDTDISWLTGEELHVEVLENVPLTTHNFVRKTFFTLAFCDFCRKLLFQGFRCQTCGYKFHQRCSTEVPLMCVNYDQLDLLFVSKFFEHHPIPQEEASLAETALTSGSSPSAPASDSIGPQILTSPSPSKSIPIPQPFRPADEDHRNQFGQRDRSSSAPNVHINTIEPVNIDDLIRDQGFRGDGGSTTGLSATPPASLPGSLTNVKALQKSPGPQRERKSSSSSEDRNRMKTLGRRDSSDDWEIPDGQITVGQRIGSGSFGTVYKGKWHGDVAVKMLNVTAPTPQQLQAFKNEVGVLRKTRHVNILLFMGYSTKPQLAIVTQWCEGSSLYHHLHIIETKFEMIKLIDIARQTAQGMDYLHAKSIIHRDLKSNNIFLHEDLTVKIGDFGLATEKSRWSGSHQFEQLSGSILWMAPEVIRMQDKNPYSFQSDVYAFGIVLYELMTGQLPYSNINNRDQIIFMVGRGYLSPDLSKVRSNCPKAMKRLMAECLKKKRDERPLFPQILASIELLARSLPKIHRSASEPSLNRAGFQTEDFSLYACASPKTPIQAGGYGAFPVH

Row | SMILES | DC50 [nM] | Dmax [%]
1 | CCCS(=O)(=O)Nc1cccc(-c2nc(C(C)(C)C)sc2-c2ccnc(Nc3ccc(C4CCN(C(=O)CN5CCC6(CC5)CN(c5ccc7c(c5)C(=O)N(C5CCC(=O)NC5=O)C7=O)C6)CC4)cc3)n2)c1F (racemic) [Compound 153, Rac-N-[3-(2-tert-butyl-5-{2-[(4-{1-[2-(2-{2-[(3R)-2,6-dioxopiperidin-3-yl]-1,3-dioxo-2,3-dihydro-1H-isoindol-5-yl}-2,7-diazaspiro[3.5]nonan-7-yl)acetyl]piperidin-4-yl}phenyl)amino]pyrimidin-4-yl}-1,3-thiazol-4-yl)-2-fluorophenyl]propane-1-sulfonamide] | 50 to 500 | 30 to 70
2 | CCCS(=O)(=O)Nc1cccc(-c2nc(C(C)(C)C)sc2-c2ccnc(Nc3ccc(C4CCN(C(=O)C5CCN(c6ccc7c(c6)C(=O)N(C6CCC(=O)NC6=O)C7=O)CC5)CC4)cc3)n2)c1F (racemic) [Compound 155, Rac-N-(3-{2-tert-butyl-5-[2-({4-[1-(1-{2-[(3R)-2,6-dioxopiperidin-3-yl]-1,3-dioxo-2,3-dihydro-1H-isoindol-5-yl}piperidine-4-carbonyl)piperidin-4-yl]phenyl}amino)pyrimidin-4-yl]-1,3-thiazol-4-yl}-2-fluorophenyl)propane-1-sulfonamide] | 50 to 500 | 30 to 70
3 | CCCS(=O)(=O)Nc1cccc(-c2nc(C(C)(C)C)sc2-c2ccnc(NC3CC4(C3)CN(C(=O)CC3CCN(C5CCN(c6ccc7c(c6)C(=O)N(C6CCC(=O)NC6=O)C7=O)CC5)CC3)C4)n2)c1F (racemic) [Compound 157, Rac-N-(3-{2-tert-butyl-5-[2-({2-[2-(1′-{2-[(3R)-2,6-dioxopiperidin-3-yl]-1,3-dioxo-2,3-dihydro-1H-isoindol-5-yl}-[1,4′-bipiperidin]-4-yl)acetyl]-2-azaspiro[3.3]heptan-6-yl}amino)pyrimidin-4-yl]-1,3-thiazol-4-yl}-2-fluorophenyl)propane-1-sulfonamide] | 50 to 500 | 30 to 70
4 | CCCS(=O)(=O)Nc1cccc(-c2nc(C(C)(C)C)sc2-c2ccnc(Nc3ccc(C4CCN(C(=O)CC5CCN(C6CCN(c7ccc8c(c7)C(=O)N(C7CCC(=O)NC7=O)C8=O)CC6)CC5)CC4)cc3)n2)c1F (racemic) [Compound 158, Rac-N-[3-(2-tert-butyl-5-{2-[(4-{1-[2-(1′-{2-[(3R)-2,6-dioxopiperidin-3-yl]-1,3-dioxo-2,3-dihydro-1H-isoindol-5-yl}-[1,4′-bipiperidin]-4-yl)acetyl]piperidin-4-yl}phenyl)amino]pyrimidin-4-yl}-1,3-thiazol-4-yl)-2-fluorophenyl]propane-1-sulfonamide] | 50 to 500 | 30 to 70
5 | CCCS(=O)(=O)Nc1cccc(-c2nc(C(C)(C)C)sc2-c2ccnc(NC3CC4(C3)CN(C(=O)C3CCN(c5cccc6c5n(C)c(=O)n6C5CCC(=O)NC5=O)CC3)C4)n2)c1F (racemic) [Compound 160, Rac-N-{3-[2-tert-butyl-5-(2-{[2-(1-{1-[(3R)-2,6-dioxopiperidin-3-yl]-3-methyl-2-oxo-2,3-dihydro-1H-1,3-benzodiazol-4-yl}piperidine-4-carbonyl)-2-azaspiro[3.3]heptan-6-yl]amino}pyrimidin-4-yl)-1,3-thiazol-4-yl]-2-fluorophenyl}propane-1-sulfonamide] | – | 30 to 70
6 | CCCS(=O)(=O)Nc1cccc(-c2nc(C(C)(C)C)sc2-c2ccnc(Nc3ccc(C4CCN(C(=O)C5CCN(c6cccc7c6n(C)c(=O)n7C6CCC(=O)NC6=O)CC5)CC4)cc3)n2)c1F (racemic) [Compound 161, Rac-N-(3-{2-tert-butyl-5-[2-({4-[1-(1-{1-[(3R)-2,6-dioxopiperidin-3-yl]-3-methyl-2-oxo-2,3-dihydro-1H-1,3-benzodiazol-4-yl}piperidine-4-carbonyl)piperidin-4-yl]phenyl}amino)pyrimidin-4-yl]-1,3-thiazol-4-yl}-2-fluorophenyl)propane-1-sulfonamide] | 10 to 50 | 30 to 70
7 | CCCS(=O)(=O)Nc1cccc(-c2nc(C(C)(C)C)sc2-c2ccnc(Nc3ccc(C4CCN(C[C@H]5CC[C@H](Oc6ccc(C7CCC(=O)NC7=O)cn6)CC5)CC4)cc3)n2)c1F (mixture of isomers) [Compound 168, N-{3-[2-tert-butyl-5-(2-{[4-(1-{[(1r,4r)-4-({5-[(3RS)-2,6-dioxopiperidin-3-yl]pyridin-2-yl}oxy)cyclohexyl]methyl}piperidin-4-yl)phenyl]amino}pyrimidin-4-yl)-1,3-thiazol-4-yl]-2-fluorophenyl}propane-1-sulfonamide] | 10 to 50 | > 70
8 | CCCS(=O)(=O)Nc1cccc(-c2nc(C(C)(C)C)sc2-c2ccnc(Nc3ccc(C4CCN(C(=O)C5CCN(CC6CCN(c7ccc(C8CCC(=O)NC8=O)cn7)CC6)CC5)CC4)cc3)n2)c1F (racemic) [Compound 175, Rac-N-{3-[2-tert-butyl-5-(2-{[4-(1-{1-[(1-{5-[(3R)-2,6-dioxopiperidin-3-yl]pyridin-2-yl}piperidin-4-yl)methyl]piperidine-4-carbonyl}piperidin-4-yl)phenyl]amino}pyrimidin-4-yl)-1,3-thiazol-4-yl]-2-fluorophenyl}propane-1-sulfonamide] | 10 to 50 | 30 to 70

Second part, the molecule after the results:

Row | DC50 [nM] | Dmax [%] | SMILES
9 | 50 to 500 | > 70 | CCCS(=O)(=O)Nc1cccc(-c2nc(C(C)(C)C)sc2-c2ccnc(NC3CC4(C3)CN(C(=O)C3CN(C5CCN(c6ccc7c(c6)C(=O)N(C6CCC(=O)NC6=O)C7=O)CC5)C3)C4)n2)c1F (racemic) [Compound 154, Rac-N-(3-{2-tert-butyl-5-[2-({2-[1-(1-{2-[(3R)-2,6-dioxopiperidin-3-yl]-1,3-dioxo-2,3-dihydro-1H-isoindol-5-yl}piperidin-4-yl)azetidine-3-carbonyl]-2-azaspiro[3.3]heptan-6-yl}amino)pyrimidin-4-yl]-1,3-thiazol-4-yl}-2-fluorophenyl)propane-1-sulfonamide]
10 | 10 to 50 | > 70 | CCCS(=O)(=O)Nc1cccc(-c2nc(C(C)(C)C)sc2-c2ccnc(Nc3ccc(C4CCN(C(=O)C5CCN(c6ccc(C7CCC(=O)NC7=O)cn6)CC5)CC4)cc3)n2)c1F (racemic) [Compound 156, Rac-N-(3-{2-tert-butyl-5-[2-({4-[1-(1-{5-[(3R)-2,6-dioxopiperidin-3-yl]pyridin-2-yl}piperidine-4-carbonyl)piperidin-4-yl]phenyl}amino)pyrimidin-4-yl]-1,3-thiazol-4-yl}-2-fluorophenyl)propane-1-sulfonamide]
11 | 50 to 500 | 30 to 70 | CCCS(=O)(=O)Nc1cccc(-c2nc(C(C)(C)C)sc2-c2ccnc(Nc3ccc(C4CCN(CC5CCN(c6ccc(C(=O)NC7CCC(=O)NC7=O)nc6)CC5)CC4)cc3)n2)c1F (racemic) [Compound 169, Rac-5-{4-[(4-{4-[(4-{2-tert-butyl-4-[2-fluoro-3-(propane-1-sulfonamido)phenyl]-1,3-thiazol-5-yl}pyrimidin-2-yl)amino]phenyl}piperidin-1-yl)methyl]piperidin-1-yl}-N-[(3R)-2,6-dioxopiperidin-3-yl]pyridine-2-carboxamide]
12 | 10 to 50 | 30 to 70 | CCCS(=O)(=O)Nc1cccc(-c2nc(C(C)(C)C)sc2-c2ccnc(Nc3ccc(C4CCN(C(=O)COc5ccc6c(c5)C(=O)N(C5CCC(=O)NC5=O)C6=O)CC4)cc3)n2)c1F (racemic) [Compound 176, Rac-N-[3-(2-tert-butyl-5-{2-[(4-{1-[2-({2-[(3R)-2,6-dioxopiperidin-3-yl]-1,3-dioxo-2,3-dihydro-1H-isoindol-5-yl}oxy)acetyl]piperidin-4-yl}phenyl)amino]pyrimidin-4-yl}-1,3-thiazol-4-yl)-2-fluorophenyl]propane-1-sulfonamide]
13 | < 10 | > 70 | CCCS(=O)(=O)Nc1cccc(-c2nc(C3CCN(C(=O)C4(C)CCN(C(=O)C5CCN(c6ccc(C7CCC(=O)NC7=O)cc6)CC5)CC4)CC3)sc2-c2ccncn2)c1F (racemic) [Compound 178, Rac-N-[3-(2-{1-[1-(1-{4-[(3R)-2,6-dioxopiperidin-3-yl]phenyl}piperidine-4-carbonyl)-4-methylpiperidine-4-carbonyl]piperidin-4-yl}-5-(pyrimidin-4-yl)-1,3-thiazol-4-yl)-2-fluorophenyl]propane-1-sulfonamide]
14 | < 10 | > 70 | CCCS(=O)(=O)Nc1cccc(-c2nc(C3CCN(C(=O)C4(C)CCN(C(=O)C5CCN(c6ccc(C7CCC(=O)NC7=O)cn6)CC5)CC4)CC3)sc2-c2ccncc2)c1F (racemic) [Compound 182, Rac-N-[3-(2-{1-[1-(1-{5-[(3R)-2,6-dioxopiperidin-3-yl]pyridin-2-yl}piperidine-4-carbonyl)-4-methylpiperidine-4-carbonyl]piperidin-4-yl}-5-(pyridin-4-yl)-1,3-thiazol-4-yl)-2-fluorophenyl]propane-1-sulfonamide]
15 | < 10 | > 70 | CCCS(=O)(=O)Nc1cccc(-c2nc(C3CCN(C(=O)C4CCN(C(=O)CC5CCN(c6ccc(NC7CCC(=O)NC7=O)cc6)CC5)CC4)CC3)sc2-c2ccncn2)c1F (racemic) [Compound 184, Rac-N-(3-{2-[1-(1-{2-[1-(4-{[(3R)-2,6-dioxopiperidin-3-yl]amino}phenyl)piperidin-4-yl]acetyl}piperidine-4-carbonyl)piperidin-4-yl]-5-(pyrimidin-4-yl)-1,3-thiazol-4-yl}-2-fluorophenyl)propane-1-sulfonamide]
